This note sets out measurements from patent US10995068B2, “Synthetic sphingolipid-like molecules, drugs, methods of their synthesis and methods of treatment” (The Regents of the University of California, priority 2015, dated 2021).

Test [1] has as its system subcutaneous SW620 xenograft tumors. Nature of the test: SW620 xenograft study in nude mice. Type of test: in vivo. Conditions: 20 mg/kg daily by intraperitoneal injection. As for the experimental part: In even another exemplary study, anti-neoplasm potency of the constrained pyrrolidine sphingolipid-like compounds in xenograft tumor animal studies. Nude mice bearing subcutaneous SW620 xenograft tumors were treated daily with 10 mg/kg FTY720 or 20 mg/kg of compounds 5 or 15 by intraperitoneal injection. […] Furthermore, these compounds retain many of the beneficial abilities of FTY720, such as, for example water solubility, oral bioavailability, and anti-tumor activity but no longer trigger bradycardia. Thus, these compounds are ideal for medicaments and treatments for neoplasms.
SW620 and SW480 xenograft studies: For SW620 xenograft studies, two and one half million luciferase-expressing SW620 colon cancer cells suspended in PBS with 2% FCS are injected subcutaneously in the flank of 7 week old male nude mice (Charles Rivers Labs, Crl:NU(NCr)-Foxn1nu). When tumors reached 100 mm^3 in volume, mice are assigned to groups with matched average tumor volumes and animal weights. Four groups containing 7 mice are treated intraperitoneally with either vehicle (0.9% saline), 10 mg/kg FTY720, or 20 mg/kg compound 5 or compound 15. Tumor length and width are measured with calipers at 7 and 11 days of treatment. Tumor volume is calculated using the formula volume (mm^3)=length [mm]×(width [mm])^2×0.52. The average fold change in the volume of each tumor over time is shown.

The test system of test [2] is DU145 prostate cancer cells. Nature of the test: Cell Titer Glo proliferation assay in DU145. Conditions: 72 h, Mean ± SEM, n ≥ 3, read-out: IC50 values in prostate cancer cell lines, DU145. The test is classed as cell-based, human. A digest of the protocol:
(§1)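 Cells plated at 1,000 cells/well and left at least 24 h, then exposed to compound for 72 h. Permeabilised with 0.1% Triton-X100, lysed with Cell Titer-Glo reagent, luminescence read; IC50 from dose-response curves. PC3 grown in F12K with 10% FCS, DU145 in MEM with 10% FCS and pyruvate.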
On the technique in general: ATP-based viability assays read luminescence as a measure of living cells.

The test system of test [3] is PC3 prostate cancer cells. In words: Cell Titer Glo proliferation assay in PC3. Type of test: cell-based, human. Conditions: Cell Titer Glo, 72 h; Mean ± SEM, n ≥ 3; read-out: IC50 values in prostate cancer cell lines, PC3. A digest of the protocol:
as §1

Test [4] has as its system fusion of LC3-positive autophagosomes with LAMP1-positive lysosomes. Nature of the test: Autophagosome-lysosome fusion in chloroquine-treated cells. The test is classed as cell-based. As for the experimental part: It is known in the art that cells adapt to nutrient stress by increasing autophagic flux. However, autophagosome-lysosome fusion reactions depend upon […] release via TRPML1 channels that are activated by PI(3,5)P2. […] Chloroquine (CQ) is molecule that stabilizes the transient autophagosomes. Cells were treated with CG to stabilize autophagolysosomes and subsequently treated with FTY720, SH-BC-893, or YM201636. […] Phosphatidylinositol 5-Phosphate (PI(5)P) is essential for autophagosome biogenesis upon glucose depletion. PI(5)P is produced by dephosphorylating PI(3,5)P2, and thus PI(5)P might also be mis-localized in SH-BC-893-treated cells, and thus also contributing to the disruption of autophagosome formation. […] Thus, SH-BC-893 inhibited both autophagosome formation and degradation. As a control, Vac14 over-expression limited vacuolation (FIGS. 55F, 61F, and 62B) and rescued autophagic flux in SH-BC-893-treated cells (FIGS. 61A, 61B, 61D and 61E).
(§2) Light Microscopy: Brightfield and epifluorescence microscopy were conducted using a Nikon TE2000-S fluorescence microscope; confocal microscopy was performed on a Zeiss LSM780 confocal microscope or Nikon Eclipse Ti spinning disk confocal microscope. […] Co-localization was determined using JACoP plugin in ImageJ software. Macropinocytosis was measured after 16 h incubation in serum-free DMEM. p53−/−; LSL-K-RasG12D MEFs before (LSL) or after (KRasG12D) introduction of Cre were serum starved for 16 h and then treated with macropinocytosis inhibitor 5-(N-ethyl-N-isopropyl) amiloride (EIPA, 75 μM) for 1 h or SH-BC-893 for 6 h. Oregon Green dextran (Life Technologies, cat #D7173) (1 mg/mL) and Lysotracker Red (Life Technologies, cat #L-7525) (1:2,000 dilution) were added for 30 min and live cells were evaluated on the spinning disc confocal microscope. […]

For test [5], the system named is K-RasG12D expressing cells. In words: Macropinosome fusion with lysosomes. The test is classed as cell-based. Conditions: dextran.
From the text: In cells with activated Ras, macropinocytosis might also confer resistance to nutrient transporter down-regulation. However, PI(3,5)P2 is also required for macropinosome degradation. […] Macropinosomes that fail to fuse with lysosomes would not be able to supply nutrients, such as amino acids. Thus, by disrupting PIKfyve localization, sphingolipid-like compounds limit access to lysosome-derived nutrients at the same time it down-regulates transporters for amino acids and glucose.
as §2

What is called IC50 is the concentration at which inhibition is half-maximal. Take `CCCCCCCCc1ccc([C@H]2CCN[C@@H]2COC)cc1.Cl` [Compound 15]: the “tumor growth of SW620 xenografts” value in test [1] is recorded as “inhibited tumor growth”. Further, the IC50 in test [2] was 5.9 ± 0.3 µM; in test [3], 6.3 ± 0.3 µM.
Consider `Nc1ccc(C(=O)Nc2cccc(-c3nc(N4CCOCC4)c4oc5ncccc5c4n3)c2)cn1` [YM201636, reference compound], for which the “fusion of LC3-positive autophagosomes with LAMP1-positive lysosomes” value in test [4] is reported as “reduced fusion”. Moreover, in test [5], the “macropinosome fusion with lysosomes” value is “dramatically reduced macropinosome fusion with lysosomes”.
